“And” between values parts separate entries of the source, which are not always exact repeats. Equal values may be shown once.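 All cell lines were grown in 96-well plates and treated with compound for 48 hours. Abbreviation: GI50, concentration required for 50% inhibition of growth.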 The source made the active and inactive calls. No stated cut-off is given here; in the data, active = GI50 up to about 1.1 µM and inactive = higher.
Columns and labels:
Assay in all cases: inhibition of tumour cell growth, NCI panel, 48 h
A549 = tested on: A549
CCRF-CEM = tested on: CCRF-CEM
EKVX = tested on: EKVX
HCC 2998 = tested on: HCC 2998
HCT-116 = tested on: HCT-116
HOP-62 = tested on: HOP-62
HOP-92 = tested on: HOP-92
HT-29 = tested on: HT-29
KM12 = tested on: KM12
MDA-MB-435 = tested on: MDA-MB-435
NCI-H226 = tested on: NCI-H226
NCI-H460 = tested on: NCI-H460
OVCAR-3 = tested on: OVCAR-3
OVCAR-8 = tested on: OVCAR-8
SK-MEL-28 = tested on: SK-MEL-28
SK-MEL-2 = tested on: SK-MEL-2
SNB-19 = tested on: SNB-19
T47D = tested on: T47D
RPMI-8226 = tested on: RPMI-8226

Compound | GI50 (A549) | GI50 (CCRF-CEM) | GI50 (EKVX) | GI50 (HCC 2998) | GI50 (HCT-116) | GI50 (HOP-62) | GI50 (HOP-92) | GI50 (HT-29) | GI50 (KM12) | GI50 (MDA-MB-435) | GI50 (NCI-H226) | GI50 (NCI-H460) | GI50 (OVCAR-3) | GI50 (OVCAR-8) | GI50 (SK-MEL-28) | GI50 (SK-MEL-2) | GI50 (SNB-19) | GI50 (T47D) | GI50 (RPMI-8226)
O=[PH]1c2ccccc2Nc2ccccc21 | > 100 µM (inactive) | > 100 µM (inactive) | 22.4 µM (inactive) | > 100 µM (inactive) | > 100 µM (inactive) | > 100 µM (inactive) | > 100 µM (inactive) | 51.6 µM (inactive) | > 100 µM (inactive) | > 100 µM (inactive) | > 100 µM (inactive) | 53.5 µM (inactive) | 52.6 µM (inactive) | > 100 µM (inactive) | > 100 µM (inactive) | 49.9 µM (inactive) | > 100 µM (inactive) | > 100 µM (inactive) | 
Cc1cc(S(=O)(=O)N/C(=N/N)NCCc2ccccc2)c(S)cc1Cl | 36.1 µM (inactive) | 25.1 µM (inactive) | 34.8 µM (inactive) | 23.2 µM (inactive) | 25.1 µM (inactive) | > 10 µM (inactive) |  | 31.6 µM (inactive) | 23.4 µM (inactive) | 22 µM (inactive) | 25.6 µM (inactive) |  | 24.5 µM (inactive) | 18.9 µM (inactive) | 20.7 µM (inactive) | 38.2 µM (inactive) | 18.1 µM (inactive) | 18.1 µM (inactive) | 32.7 µM (inactive)
Cc1nc2c(c(N3CCN(C)CC3)n1)Cc1ccccc1-2 | 44.2 µM (inactive) | 65.2 µM (inactive) | 42.4 µM (inactive) |  | 46.5 µM (inactive) |  | 36.7 µM (inactive) | 44.1 µM (inactive) | 48 µM (inactive) | 64.7 µM (inactive) | 45.8 µM (inactive) | 18.8 µM (inactive) |  | 54 µM (inactive) |  | 75.5 µM (inactive) | 24.9 µM (inactive) | > 100 µM (inactive) | > 100 µM (inactive)
O=Cc1c(C(=O)O)[nH]c(=O)[nH]c1=O | > 100 µM (inactive) | > 100 µM (inactive) | > 100 µM (inactive) |  | > 100 µM (inactive) |  |  | > 100 µM (inactive) | > 100 µM (inactive) | > 100 µM (inactive) | > 100 µM (inactive) | > 100 µM (inactive) | > 100 µM (inactive) | > 100 µM (inactive) | > 100 µM (inactive) | > 100 µM (inactive) | > 100 µM (inactive) |  | > 100 µM (inactive)
CC(=O)OCC1OC(Sc2nc(-c3ccc(C)cc3)c(C#N)c(=O)n2C2OC(COC(C)=O)C(OC(C)=O)C(OC(C)=O)C2OC(C)=O)C(OC(C)=O)C(OC(C)=O)C1OC(C)=O (stereo not drawn) | > 100 µM (inactive) | 4.83 µM (inactive) and 6.76 µM (inactive) | > 100 µM (inactive) |  | > 100 µM (inactive) | > 100 µM (inactive) |  | > 100 µM (inactive) |  |  | > 100 µM (inactive) | > 100 µM (inactive) | > 100 µM (inactive) | > 100 µM (inactive) | > 100 µM (inactive) | > 100 µM (inactive) | > 100 µM (inactive) | > 100 µM (inactive) | > 100 µM (inactive)
Cc1ccc(-c2cc(-c3ccc(Cl)cc3)nc(/N=C3\C(=O)N(CN4CCCCC4)c4ccc(Cl)cc43)n2)cc1 | 16.4 µM (inactive) | 36.3 µM (inactive) | 77.8 µM (inactive) | 14.9 µM (inactive) | 23.1 µM (inactive) | 26.3 µM (inactive) | 15.6 µM (inactive) | 32.3 µM (inactive) | 15.8 µM (inactive) | 20.3 µM (inactive) | 39.4 µM (inactive) | 22.5 µM (inactive) | 35.5 µM (inactive) | 18.5 µM (inactive) | 64.1 µM (inactive) | 18.2 µM (inactive) | 11.2 µM (inactive) | 29.9 µM (inactive) | 
Cc1ccc(-c2n[nH]c(CC#N)n2)cc1 | > 100 µM (inactive) | > 100 µM (inactive) | 8.57 µM (inactive) | > 100 µM (inactive) | > 100 µM (inactive) | > 100 µM (inactive) | > 100 µM (inactive) | > 100 µM (inactive) | > 100 µM (inactive) | > 100 µM (inactive) |  | > 100 µM (inactive) | > 100 µM (inactive) | > 100 µM (inactive) | > 100 µM (inactive) | > 100 µM (inactive) | 0.608 µM (active) | > 100 µM (inactive) | 
CCN(CC)C1=Nc2ccccc2-n2ccnc2C1 | > 100 µM (inactive) | > 100 µM (inactive) | > 100 µM (inactive) | > 100 µM (inactive) | > 100 µM (inactive) | > 100 µM (inactive) | > 100 µM (inactive) | > 100 µM (inactive) | > 100 µM (inactive) | > 100 µM (inactive) | > 100 µM (inactive) | 95.1 µM (inactive) | > 100 µM (inactive) | > 100 µM (inactive) | > 100 µM (inactive) | > 100 µM (inactive) | > 100 µM (inactive) | > 100 µM (inactive) | 
N#C/C(=N/Nc1[nH]cnc1C(N)=O)C(=O)Nc1ccccc1 | > 100 µM (inactive) | 3.23 µM (inactive) | 65.5 µM (inactive) | 9.89 µM (inactive) | 14.3 µM (inactive) | 6.18 µM (inactive) |  | 48.6 µM (inactive) | 13.9 µM (inactive) | 22.1 µM (inactive) | 27 µM (inactive) | 37.6 µM (inactive) | 5.41 µM (inactive) | 3.23 µM (inactive) | 88.5 µM (inactive) | 5.27 µM (inactive) | > 100 µM (inactive) | 56.6 µM (inactive) | 2.16 µM (inactive)
CC(C)CCNC(=O)C(CC(C)C)NC(=O)[C@H]1O[C@@H]1C(=O)O (stereo partly drawn) | > 100 µM (inactive) | > 100 µM (inactive) | > 100 µM (inactive) | > 100 µM (inactive) | > 100 µM (inactive) | > 100 µM (inactive) | > 100 µM (inactive) | > 100 µM (inactive) | > 100 µM (inactive) | > 100 µM (inactive) | > 100 µM (inactive) | > 100 µM (inactive) | > 100 µM (inactive) | > 100 µM (inactive) | > 100 µM (inactive) |  | > 100 µM (inactive) | > 100 µM (inactive) | 
Cc1cc(C)n(C2=NS(=O)(=O)c3ccccc3N2C)n1 | > 100 µM (inactive) | > 100 µM (inactive) | > 100 µM (inactive) | > 100 µM (inactive) | > 100 µM (inactive) | > 100 µM (inactive) | > 100 µM (inactive) | > 100 µM (inactive) | > 100 µM (inactive) | > 100 µM (inactive) | > 100 µM (inactive) | > 100 µM (inactive) | > 100 µM (inactive) | > 100 µM (inactive) | > 100 µM (inactive) | > 100 µM (inactive) | > 100 µM (inactive) | > 100 µM (inactive) | 
O=C1C(c2c(O)[nH]c3ccc(F)cc23)=Nc2ccccc21 | > 100 µM (inactive) | 28 µM (inactive) | > 100 µM (inactive) | > 100 µM (inactive) | > 100 µM (inactive) | 46.2 µM (inactive) | 10.9 µM (inactive) | > 100 µM (inactive) | > 100 µM (inactive) | > 100 µM (inactive) | > 100 µM (inactive) | > 100 µM (inactive) | > 100 µM (inactive) | 8.13 µM (inactive) | > 100 µM (inactive) | 14.5 µM (inactive) | 26.5 µM (inactive) |  | > 100 µM (inactive)
CC1(C)CC2(C)CC1CC2(O)c1ccccc1 (stereo not drawn) | > 100 µM (inactive) | > 100 µM (inactive) |  |  | > 100 µM (inactive) | > 100 µM (inactive) | 42.7 µM (inactive) | > 100 µM (inactive) | > 100 µM (inactive) | > 100 µM (inactive) | > 100 µM (inactive) | > 100 µM (inactive) | > 100 µM (inactive) | > 100 µM (inactive) | > 100 µM (inactive) |  | > 100 µM (inactive) | > 100 µM (inactive) | 
O=C1CCCCCCCCCCC1CN1CCCC1 (stereo not drawn) | 43.6 µM (inactive) | 27.4 µM (inactive) |  | 20 µM (inactive) | 33.4 µM (inactive) | 17.1 µM (inactive) |  | 17.9 µM (inactive) | 25.6 µM (inactive) | 36.1 µM (inactive) | 15.4 µM (inactive) | 26.9 µM (inactive) | 67.5 µM (inactive) | 45.4 µM (inactive) | 22.1 µM (inactive) | 17.9 µM (inactive) | > 100 µM (inactive) | 46.1 µM (inactive) | > 100 µM (inactive)
CCOC(=O)CCCO | > 100 µM (inactive) | > 100 µM (inactive) | > 100 µM (inactive) | > 100 µM (inactive) | > 10 µM (inactive) |  | > 100 µM (inactive) | > 100 µM (inactive) | > 100 µM (inactive) |  |  | > 100 µM (inactive) | > 100 µM (inactive) | > 100 µM (inactive) | > 100 µM (inactive) | > 100 µM (inactive) | > 100 µM (inactive) |  | > 100 µM (inactive)
O=C(CC(C(=O)c1ccsc1)c1ccsc1)c1ccsc1 (stereo not drawn) | 68.5 µM (inactive) | 43.1 µM (inactive) | 75.2 µM (inactive) | > 100 µM (inactive) | 43.4 µM (inactive) | > 100 µM (inactive) |  | 77.6 µM (inactive) | 42.7 µM (inactive) | 44.6 µM (inactive) | > 100 µM (inactive) | 60 µM (inactive) |  | > 100 µM (inactive) | 82.8 µM (inactive) | > 100 µM (inactive) | > 100 µM (inactive) | 25.5 µM (inactive) | 33.5 µM (inactive)

— ChEMBL document CHEMBL1201862, “PubChem BioAssay data set” (2004)
